Measurements taken from patent US20230312528A1, “2-OXO-IMIDAZOLIDINE-4-CARBOXAMIDES AS NAV1.8 INHIBITORS” (Merck Sharp & Dohme LLC, priority 2020, published 2023).

Target: human NaV1.8 (Homo sapiens (Human), UniProt Q9Y5Y9)
Test: Nav1.8 Qube automated patch-clamp assay
Type: cell-based
Conditions: human NaV1.8 stably expressed in HEK 293 cells; automated 384-well patch-clamp; resting or inactivated state not specified
Method: Compounds were tested on human NaV1.8 and NaV1.5 channels stably expressed in human embryo kidney (HEK) 293 cells. Sodium current measurements on Qube® were conducted as follows: automated 384-well patch-clamp assays on the Qube® platform (Sophion Biosciences) were used to measure the inhibition of sodium flow through human NaV1.8 and NaV1.5 channels. Whole-cell voltage-clamp recordings were performed in QChips® (Sophion Biosciences) at room temperature. NaV1.8 current measurements on Qube® were obtained as follows: NaV1.8 currents were elicited with a 10 second 1 Hertz (Hz) pulse train from a holding potential of −90 millivolts (mV), delivered to the cells once per minute in the control condition (DMSO only) and after compound addition. The 1 hertz pulse train stimulation consisted of ten test pulses to 10 millivolt (mV) for 20 milliseconds (ms), each of which was followed by a 980 millisecond repolarization to −67 millivolts. At the end of the 10 second pulse train stimulation, a 5 second hyperpolarization step to −100 millivolt (mV) was used to recover NaV1.8 from fast inactivation. The peak currents elicited by the 1st and 10th test pulses were used to determine IC50 values for resting inhibition and inactivated state inhibition. NaV1.5 current measurements on Qube® were obtained as follows: NaV1.5 currents were elicited with a 20 second 3 Hertz pulse train in the control condition (DMSO only) and after compound addition. The pulse train consisted of sixty 20 millisecond test pulses to 0 millivolt from a holding potential of −80 millivolt (mV). The average peak currents elicited by the last 3 test pulses were used to determine IC50 values for NaV1.5 inhibition.
The following buffers were used for the Qube® recordings: External buffer for NaV1.8 Qube® recording: 150 NaCl, 2 CaCl2, 5 KCl, 1 Mg Cl2, 10 HEPES, 12 Dextrose; External buffer for Qube® NaV1.5 recording: 120 N-Methyl-D-Glucamine, 40 NaCl, 1 KCl, 2.7 CaCl2, 5 HEPES, 0.5 MgCl2; and Internal buffer for Qube® recording: 120 CsF, 30 CsCl, 10 EGTA, 5 HEPES, 5 NaF, 2 MgCl2.
For all Qube® experiments offline analysis was used to determine percent inhibition as a function of drug concentration. IC50 values were determined by fitting to the Hill equation.

Sequence of human NaV1.8 (Q9Y5Y9 whole entry): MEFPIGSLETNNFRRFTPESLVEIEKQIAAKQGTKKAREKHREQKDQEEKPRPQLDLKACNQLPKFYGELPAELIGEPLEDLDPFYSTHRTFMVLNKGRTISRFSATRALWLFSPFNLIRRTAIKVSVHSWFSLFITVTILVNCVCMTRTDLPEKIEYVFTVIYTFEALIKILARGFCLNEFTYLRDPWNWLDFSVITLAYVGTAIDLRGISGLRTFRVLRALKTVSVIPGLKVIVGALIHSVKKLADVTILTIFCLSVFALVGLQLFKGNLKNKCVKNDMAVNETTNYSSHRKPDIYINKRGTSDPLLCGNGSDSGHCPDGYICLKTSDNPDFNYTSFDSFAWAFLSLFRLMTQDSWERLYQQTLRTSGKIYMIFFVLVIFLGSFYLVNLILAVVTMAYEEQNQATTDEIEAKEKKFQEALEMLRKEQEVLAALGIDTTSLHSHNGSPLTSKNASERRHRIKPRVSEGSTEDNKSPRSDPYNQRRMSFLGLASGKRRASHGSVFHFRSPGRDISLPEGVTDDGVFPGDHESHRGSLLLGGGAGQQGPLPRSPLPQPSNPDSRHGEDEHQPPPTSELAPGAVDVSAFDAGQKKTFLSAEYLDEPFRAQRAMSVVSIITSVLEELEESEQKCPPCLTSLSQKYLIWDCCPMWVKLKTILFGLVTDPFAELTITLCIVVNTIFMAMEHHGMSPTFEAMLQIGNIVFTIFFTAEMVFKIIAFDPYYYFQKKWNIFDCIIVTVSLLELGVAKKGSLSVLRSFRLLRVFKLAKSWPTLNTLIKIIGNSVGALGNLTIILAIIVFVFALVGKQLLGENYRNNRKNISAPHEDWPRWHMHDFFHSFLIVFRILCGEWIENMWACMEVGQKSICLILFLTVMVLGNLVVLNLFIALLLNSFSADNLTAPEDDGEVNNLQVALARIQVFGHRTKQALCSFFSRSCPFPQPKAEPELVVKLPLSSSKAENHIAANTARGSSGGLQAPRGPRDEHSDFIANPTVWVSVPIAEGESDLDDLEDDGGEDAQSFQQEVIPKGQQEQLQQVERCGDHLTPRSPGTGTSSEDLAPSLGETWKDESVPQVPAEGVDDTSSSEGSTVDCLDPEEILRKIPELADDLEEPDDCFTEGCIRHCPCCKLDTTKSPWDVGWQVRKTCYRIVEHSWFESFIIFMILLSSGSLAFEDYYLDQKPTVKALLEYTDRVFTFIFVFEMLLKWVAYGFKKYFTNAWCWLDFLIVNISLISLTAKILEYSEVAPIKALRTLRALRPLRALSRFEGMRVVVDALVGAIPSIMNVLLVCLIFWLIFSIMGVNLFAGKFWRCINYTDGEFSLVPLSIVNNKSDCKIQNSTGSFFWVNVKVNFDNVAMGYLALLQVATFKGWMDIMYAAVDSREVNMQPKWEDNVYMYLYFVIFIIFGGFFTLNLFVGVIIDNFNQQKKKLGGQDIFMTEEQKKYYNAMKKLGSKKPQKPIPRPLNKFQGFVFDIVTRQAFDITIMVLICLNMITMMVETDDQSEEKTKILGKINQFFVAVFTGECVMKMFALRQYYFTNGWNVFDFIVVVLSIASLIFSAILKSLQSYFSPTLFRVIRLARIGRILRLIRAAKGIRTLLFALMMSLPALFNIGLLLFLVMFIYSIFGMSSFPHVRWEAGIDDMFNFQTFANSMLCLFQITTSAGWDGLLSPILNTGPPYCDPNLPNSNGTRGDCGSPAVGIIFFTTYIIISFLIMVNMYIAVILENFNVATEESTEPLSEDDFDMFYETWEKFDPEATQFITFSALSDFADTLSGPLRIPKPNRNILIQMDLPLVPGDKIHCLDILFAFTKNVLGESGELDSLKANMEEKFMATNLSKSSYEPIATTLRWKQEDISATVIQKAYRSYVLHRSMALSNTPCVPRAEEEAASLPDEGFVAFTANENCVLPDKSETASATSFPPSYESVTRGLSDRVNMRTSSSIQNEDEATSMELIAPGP

Row | Compound | IC50
1 | N#Cc1cccc(C(NC(=O)[C@@H]2CNC(=O)N2)c2ccc(F)c(Cl)c2)n1 (single isomer, unassigned) [Example 12A, (4S)-N-[((R or S)-3-chloro-4-fluorophenyl)(6-cyanopyridin-2-yl)methyl]-2-oxoimidazolidine-4-carboxamide] | 81 nM
2 | N#Cc1cccc(C(NC(=O)[C@@H]2CNC(=O)N2)c2ccc(F)c(Cl)c2)n1 (single isomer, unassigned) [Example 12B, (4S)-N-[((R or S)-3-chloro-4-fluorophenyl)(6-cyanopyridin-2-yl)methyl]-2-oxoimidazolidine-4-carboxamide] | 1420 nM
3 | O=C1NC[C@@H](C(=O)NC(c2cnc(C3CC3)c(Cl)c2)c2ccc(F)c(Cl)c2F)N1 (single isomer, unassigned) [Example 13A, (4S)-N-[((R or S)-5-chloro-6-cyclo-propylpyridin-3-yl)(3-chloro-2,4-difluoro-phenyl)methyl]-2-oxoimidazolidine-4-carboxamide] | 1.1 nM
4 | O=C1NC[C@@H](C(=O)NC(c2cnc(C3CC3)c(Cl)c2)c2ccc(F)c(Cl)c2F)N1 (single isomer, unassigned) [Example 13B, (4S)-N-[((R or S)-5-chloro-6-cyclo-propylpyridin-3-yl)(3-chloro-2,4-difluoro-phenyl)methyl]-2-oxoimidazolidine-4-carboxamide] | 38 nM
5 | O=C1NC[C@@H](C(=O)NC(c2cnc(C(F)(F)F)c(Cl)c2)c2ccc(F)c(C(F)(F)F)n2)N1 (single isomer, unassigned) [Example 14A, (4S)-N-{[(R or S)-5-chloro-6-(trifluoro-methyl)pyridin-3-yl][5-fluoro-6-(trifluoro-methyl)pyridin-2-yl]methyl}-2-oxoimidazolidine-4-carboxamide] | 2.4 nM
6 | O=C1NC[C@@H](C(=O)NC(c2cnc(C(F)(F)F)c(Cl)c2)c2ccc(F)c(C(F)(F)F)n2)N1 (single isomer, unassigned) [Example 14B, (4S)-N-{[R or S)-5-chloro-6-(trifluoro-methyl)pyridin-3-yl][5-fluoro-6-(trifluoro-methyl)pyridin-2-yl]methyl}-2-oxoimidazolidine-4-carboxamide] | 21 nM
7 | C[C@@H]1C[C@H](C(NC(=O)[C@@H]2CNC(=O)N2)c2ccc(F)c(Cl)c2)C[C@H](C)N1CC(F)(F)F (single isomer, unassigned) [Example 15A, (S)-N-((R or S)-(3-chloro-4-fluoro-phenyl)(cis-2,6-dimethyl-1-(2,2,2-trifluoroethyl)piperidin-4-yl)methyl)-2-oxoimidazolidine-4-carboxamide] | 31 nM
8 | C[C@@H]1C[C@H](C(NC(=O)[C@@H]2CNC(=O)N2)c2ccc(F)c(Cl)c2)C[C@H](C)N1CC(F)(F)F (single isomer, unassigned) [Example 15B, (S)-N-((R or S)-(3-chloro-4-fluoro-phenyl)(cis-2,6-dimethyl-1-(2,2,2-trifluoroethyl)piperidin-4-yl)methyl)-2-oxoimidazolidine-4-carboxamide] | 965 nM
9 | O=C1NC[C@@H](C(=O)NC(c2ccc(F)c(Cl)c2)c2csc(C3(C(F)(F)F)CC3)n2)N1 (single isomer, unassigned) [Example 16A, (S)-N-((R or S)-(3-choro-4-fluoro-phenyl)(2-(1-(trifluoromethyl)cyclopropyl)thiazol-4-yl)methyl)-2-oxoimidazolidine-4-carboxamide] | 1.1 nM
10 | O=C1NC[C@@H](C(=O)NC(c2ccc(F)c(Cl)c2)c2csc(C3(C(F)(F)F)CC3)n2)N1 (single isomer, unassigned) [Example 16B, (S)-N-((R or S)-(3-chloro-4-fluoro-phenyl)(2-(1-(trifluoromethyl)cyclopropyl)thiazol-4-yl)methyl)-2-oxoimidazolidine-4-carboxamide] | 14 nM
11 | O=C1NC[C@@H](C(=O)NC(c2ccc(Cl)cc2)c2ccc(F)c(C(F)(F)F)c2)N1 (single isomer, unassigned) [Example 17A, (S)-N-((R or S)-(4-chlorophenyl)(4-fluoro-3-(trifluoro-methyl)phenyl)methyl)-2-oxoimidazolidine-4-carboxamide] | 0.6 nM
12 | O=C1NC[C@@H](C(=O)NC(c2ccc(Cl)cc2)c2ccc(F)c(C(F)(F)F)c2)N1 (single isomer, unassigned) [Example 17B, (S)-N-((R or S)-(4-chloropehnyl)(4-fluoro-3-(trifluoro-methyl)phenyl)methyl)-2-oxoimidazolidine-4-carboxamide] | 7 nM
13 | N#Cc1ccc(C(NC(=O)[C@@H]2CNC(=O)N2)c2ccc(F)c(Cl)c2)cc1 (single isomer, unassigned) [Example 18A, (S)-N-((R or S)-(3-chloro-4-fluoro-phenyl)(4-cyano-phenyl)methyl)-2-oxoimidazolidine-4-carboxamide] | 18 nM
14 | N#Cc1ccc(C(NC(=O)[C@@H]2CNC(=O)N2)c2ccc(F)c(Cl)c2)cc1 (single isomer, unassigned) [Example 18B, (S)-N-((R or S)-(3-chloro-4-fluoro-phenyl)(4-cyano-phenyl)methyl)-2-oxoimidazolidine-4-carboxamide] | 17 nM
15 | CC1(C(=O)NC(c2ccc(Cl)cc2)c2ccc(Cl)cc2)NC(=O)NC1=O (single isomer, unassigned) [Example 20A, (R or S)—N-(bis(4-chlorophenyl)methyl)-4-methyl-2,5-dioxoimidazolidine-4-carboxamide] | 19200 nM
16 | CC1(C(=O)NC(c2ccc(Cl)cc2)c2ccc(Cl)cc2)NC(=O)NC1=O (single isomer, unassigned) [Example 20B, (R or S)—N-(bis(4-chlorophenyl)methyl)-4-methyl-2,5-dioxoimidazolidine-4-carboxamide] | 9480 nM
17 | O=C(NC(c1ccc(Cl)cc1)c1ccc(Cl)cc1)C1CNC(=O)N1CCO (single isomer, unassigned) [Example 21A, (R or S)—N-(bis(4-chlorophenyl)methyl)-3-(2-hydroxyethyl)-2-oxoimidazolidine-4-carboxamide] | 209 nM
18 | O=C(NC(c1ccc(Cl)cc1)c1ccc(Cl)cc1)C1CNC(=O)N1CCO (single isomer, unassigned) [Example 21B, (R or S)—N-(bis(4-chlorophenyl)methyl)-3-(2-hydroxyethyl)-2-oxoimidazolidine-4-carboxamide] | 14700 nM
19 | O=C1NC[C@@H](C(=O)NC(c2ccc(Cl)cc2)c2cnc(C(F)(F)F)[nH]2)N1 (single isomer, unassigned) [Example 22A, (S)—N—((R or S)-(4-chlorophenyl)(2-(trifluoromethyl)-1H-imidazol-4-yl)methyl)-2-oxoimidazolidine-4-carboxamide] | 373 nM
20 | O=C1NC[C@@H](C(=O)NC(c2ccc(Cl)cc2)c2cnc(C(F)(F)F)[nH]2)N1 (single isomer, unassigned) [Example 22B, (S)—N—((R or S)-(4-chlorophenyl)(2-(trifluoromethyl)-1H-imidazol-4-yl)methyl)-2-oxoimidazolidine-4-carboxamide] | 6410 nM
21 | O=C1NC[C@@H](C(=O)NC(CC2CCC(C(F)(F)F)CC2)c2ccc(F)c(Cl)c2F)N1 (single isomer, unassigned) [Example 23A, (S)—N—((R or S)-1-(3-chloro-2,4-difluorophenyl)-2-((cis or trans)-4-(trifluoromethyl)cyclohexyl)ethyl)-2-oxoimidazolidine-4-carboxamide] | 15 nM
22 | O=C1NC[C@@H](C(=O)NC(CC2CCC(C(F)(F)F)CC2)c2ccc(F)c(Cl)c2F)N1 (single isomer, unassigned) [Example 23B, (S)—N—((R or S)-1-(3-chloro-2,4-difluorophenyl)-2-((cis or trans)-4-(trifluoro-methyl)cyclohexyl)ethyl)-2-oxoimidazolidine-4-carboxamide] | 4.9 nM
23 | O=C1NC[C@@H](C(=O)NC(CC2CCC(C(F)(F)F)CC2)c2ccc(F)c(Cl)c2F)N1 (single isomer, unassigned) [Example 23C, (S)—N—((R or S)-1-(3-chloro-2,4-difluorophenyl)-2-((cis or trans)-4-(trifluoromethyl)cyclohexyl)ethyl)-2-oxoimidazolidine-4-carboxamide] | 62 nM
24 | O=C1NC[C@@H](C(=O)NC(CC2CCC(C(F)(F)F)CC2)c2ccc(F)c(Cl)c2F)N1 (single isomer, unassigned) [Example 23D, (S)—N—((R or S)-1-(3-chloro-2,4-difluorophenyl)-2-((cis or trans)-4-(trifluoromethyl)cyclohexyl)ethyl)-2-oxoimidazolidine-4-carboxamide] | 190 nM
